The record followed here is the NIST ThermoML archive (doi:10.1016/j.jct.2016.05.014).

SMILES strings stand for the structures. Several values for one entry are separate records, joined by “and”; a condition that tells them apart may be missing. Equal entries are not always repeated. ± gives the expanded uncertainty stated by the source.

The nature of data set [1]: molar heat capacity at constant pressure. As to conditions: 101.33 kPa, Crystal, Small sample (50 mg) DSC.
The conditions of data set [2]: Crystal.

With `c1ccc2ccccc2c1` [naphthalene], the “molar heat capacity at constant pressure” value in data set [1] (283.15 K) turned out to be 158.4 ± 3.9 J/K/mol; in data set [1] (288.15 K) it was 161.6 ± 4 J/K/mol; in data set [1] (293.15 K), 164.8 ± 4.1 J/K/mol; in data set [1] (298.15 K), 168 ± 4.2 J/K/mol; in data set [1] (303.15 K) it was 171.2 ± 4.2 J/K/mol; in data set [1] (308.15 K) it was 174.5 ± 4.3 J/K/mol. In addition, the “molar heat capacity at constant pressure” value in data set [1] (313.15 K) came out at 177.8 ± 4.4 J/K/mol; in data set [1] (318.15 K) it was 181.1 ± 4.5 J/K/mol; in data set [1] (323.15 K) it was 184.5 ± 4.6 J/K/mol; in data set [1] (328.15 K) it was 187.9 ± 4.7 J/K/mol; in data set [1] (333.15 K) it was 191.3 ± 4.7 J/K/mol.

Regarding `CCCCC(C#N)(Cn1cncn1)c1ccc(Cl)cc1` (centres undefined), the mass density (commonly mass per unit of volume) in data set [2] (296 K, 101.33 kPa, X-ray diffraction) is recorded as 1238 ± 6 kg/m3. In addition, in data set [2] (visual observation), the Normal melting temperature was 70.30 ± 0.58 °C. Moreover, the “molar heat capacity at constant pressure” value is 343.21 ± 9.5 J/K/mol and 340.09 ± 9.4 J/K/mol in data set [1] (283.15 K); 349.62 ± 9.7 J/K/mol and 349.73 ± 9.7 J/K/mol in data set [1] (288.15 K); 357.56 ± 9.9 J/K/mol and 356.25 ± 9.9 J/K/mol in data set [1] (293.15 K); 364.3 ± 10 J/K/mol and 362.78 ± 10 J/K/mol in data set [1] (298.15 K); 370.21 ± 10 J/K/mol and 369.3 ± 10 J/K/mol in data set [1] (303.15 K); 375.66 ± 10 J/K/mol and 375.82 ± 10 J/K/mol in data set [1] (308.15 K). Also, the “molar heat capacity at constant pressure” value is 381.03 ± 11 J/K/mol and 382.35 ± 11 J/K/mol in data set [1] (313.15 K); 386.69 ± 11 J/K/mol and 388.87 ± 11 J/K/mol in data set [1] (318.15 K); 393.03 ± 11 J/K/mol and 395.39 ± 11 J/K/mol in data set [1] (323.15 K); 400.42 ± 11 J/K/mol and 401.92 ± 11 J/K/mol in data set [1] (328.15 K); 408.44 ± 11 J/K/mol and 409.23 ± 11 J/K/mol in data set [1] (333.15 K).
